Read-outs that look alike come from different tables or passages of the source.
What was measured:
[1] = amide bond, 15-membered ring
Del19/T790M/C797S EGFR = experiment: EGFR degradation HTRF assay in H1975-clone #28 (DTC) cells; type: cell-based; settings: H1975 # 28 DTC (Del19/T790M/C797S), 16h treatment; for DC50: HTRF; for Dmax (%): maximum percentage of degradation
How it was run: (§1)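 H1975 clones with endogenous EGFR knocked out and lentivirally expressed mutant EGFR treated 16 h at 37 °C with compounds, 8 doses from 10 uM, 5-fold dilutions, 0.2% DMSO. Lysates read by HTRF (665/620 nm) overnight; DC50 from four-parameter fit.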

L858R/T790M/C797S EGFR = target: T1, L858R/T790M/C797S EGFR (Homo sapiens, UniProt P00533, C797S/L858R/T790M); experiment: EGFR degradation HTRF assay in H1975-clone #25 (LTC) cells; type: cell-based; settings: 16h treatment; for DC50: H1975 # 25-LTC (L858R/T790M/C797S), HTRF; for Dmax: NCI-H1975, H1975 # 25-LTC (L858R/T790M/C797S), maximum percentage of degradation
T1 construct: expressed in transfected cells; host or cells: H1975 clone #25 (lentiviral over-expression, endogenous EGFR knocked out by sgRNA)
T1 sequence (P00533 25-1210 T790M/C797S/L858R): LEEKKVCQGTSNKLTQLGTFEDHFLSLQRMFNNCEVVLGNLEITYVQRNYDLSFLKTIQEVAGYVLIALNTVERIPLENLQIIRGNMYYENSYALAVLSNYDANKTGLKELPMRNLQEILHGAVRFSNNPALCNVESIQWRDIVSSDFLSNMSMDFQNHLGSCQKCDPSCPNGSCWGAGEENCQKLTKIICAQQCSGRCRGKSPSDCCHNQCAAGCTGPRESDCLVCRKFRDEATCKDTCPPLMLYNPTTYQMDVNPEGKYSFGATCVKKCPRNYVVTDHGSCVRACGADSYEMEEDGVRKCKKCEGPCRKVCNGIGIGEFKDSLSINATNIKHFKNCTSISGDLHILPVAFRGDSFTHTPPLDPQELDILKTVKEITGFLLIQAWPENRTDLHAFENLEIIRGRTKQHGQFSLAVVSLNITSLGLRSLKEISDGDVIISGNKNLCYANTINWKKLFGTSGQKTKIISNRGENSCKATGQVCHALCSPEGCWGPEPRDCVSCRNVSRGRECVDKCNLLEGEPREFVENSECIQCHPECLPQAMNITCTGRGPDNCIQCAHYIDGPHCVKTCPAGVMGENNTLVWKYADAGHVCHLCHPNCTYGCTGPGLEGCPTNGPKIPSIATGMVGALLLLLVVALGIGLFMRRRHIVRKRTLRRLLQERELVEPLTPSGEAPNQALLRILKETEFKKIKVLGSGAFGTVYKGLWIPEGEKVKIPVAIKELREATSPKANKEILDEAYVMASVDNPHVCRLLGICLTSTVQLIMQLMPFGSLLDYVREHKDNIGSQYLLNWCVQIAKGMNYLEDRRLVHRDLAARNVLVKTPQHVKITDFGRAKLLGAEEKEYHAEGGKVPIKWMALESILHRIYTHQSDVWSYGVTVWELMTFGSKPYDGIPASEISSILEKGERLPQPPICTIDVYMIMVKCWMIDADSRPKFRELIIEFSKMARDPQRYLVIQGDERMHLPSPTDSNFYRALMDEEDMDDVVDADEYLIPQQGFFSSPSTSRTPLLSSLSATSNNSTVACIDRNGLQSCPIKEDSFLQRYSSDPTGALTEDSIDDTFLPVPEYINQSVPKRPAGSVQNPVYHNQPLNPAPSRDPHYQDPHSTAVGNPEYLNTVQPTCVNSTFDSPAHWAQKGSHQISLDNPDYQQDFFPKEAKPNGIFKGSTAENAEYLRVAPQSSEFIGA
How it was run: as §1

Del19/C797S EGFR = experiment: EGFR degradation HTRF assay in H1975-clone #23 (DC) cells; type: cell-based; settings: H1975 #23 DC (Del19/C797S), 16h treatment
From the text: H1975-clone #28(Del19/T790M/C797S, or abbr: DTC), H1975-clone #23(Del19/C797S, or abbr: DC), H1975-clone #25(L858R/T790M/C797S, or abbr: LTC) and H1975-clone #8 (L858R/C797S, or abbr: LC). EGFR-Del19:T790M/C797S, EGFR-Del19/C797S, EGFR-L858R/T790M/C797S and EGFR-L858R/C797S were stably expressed in H1975 cell lines by lentivirus-mediated over-expression, respectively. The EGFR over-expressed cells then underwent knockout, in which the EGFR targeting sgRNA was designed to only target the endogenous EGFR copies and preserve the exogenous EGFR copies. Followed by the knockout, the edited H1975 cells were seeded in 96 well plates at the concentration of […], cultured for about 2 weeks to allow single clones formation. The formed clones were screened by DNA sequencing and whole exon sequencing analysis for the desired edition. H1975-clone #28, H1975-clone #23, H1975-clone #25 and H1975-clone #8 were finally confirmed as homozygous Del19/T790M/C797S EGFR, Dell9/C797S EGFR, L858R/T790M/C797S EGFR and L858R/C797S EGFR clones, respectively.
H1975-#25, H1975-#28, H1975-#23 and H1975-#8 cells are treated with compounds diluted in 0.2% DMSO cell culture medium on day 2, incubate for 16h, 37° C., 5% CO2. the final concentration of compounds in all assay is start with 10 uM, 5-fold dilution, total 8 doses were included.
After 16h treatment, add HTRF lysis buffer to each well; seal the plate and incubate 1 hour at room temperature on a plate shaker; Once the cells are lysed, 16 μL of cell lysate are transferred to a PE 384-well HTRF detection plate; 4 μL of pre-mixed HTRF antibodies are added to each well; Cover the plate with a plate sealer, spin 1000 rpm for 1 min, Incubate overnight at room temperature; Read on BMG PheraStar with HTRF protocol (337 nm-665 nm-620 nm).
The IC50 (DC50) value of a compound can be obtained by fitting the following equation
Y=Bottom+(TOP−Bottom)/(1+((IC50/X)^hillslope))
Wherein, X and Y are known values, and IC50, Hillslope, Top and Bottom are the parameters obtained by fitting with software. Y is the inhibition percentage (calculated from the equation), X is the concentration of the compound: IC50 is the concentration of the compound when the 50% inhibition is reached. The smaller the IC50 value is, the stronger the inhibitory ability of the compound is. Vice versa, the higher the IC50 value is, the weaker the ability the inhibitory ability of the compound is: Hillslope represents the slope of the fitted curve, generally around 1*; Bottom represents the minimum value of the curve obtained by data fitting, which is generally 0%±20%; Top represents the maximum value of the curve obtained by data fitting, which is generally 100%±20%. The experimental data were fitted by calculating and analyzing with Dotmatics data analysis software.

Row | Compound | ring closure, isolated yield ([1]; the molecule shown is the open-chain precursor, LiHMDS, DMF/THF, 32.0 mM, 0.0 °C) [%] | ring closure, isolated yield ([1]; HATU/DIEA, DCM, 155.0 mM, 25.0 °C) [%] | DC50 (Del19/T790M/C797S EGFR) [nM] | Dmax (%) (Del19/T790M/C797S EGFR) | DC50 (L858R/T790M/C797S EGFR) [nM] | Dmax (L858R/T790M/C797S EGFR) [%] | DC50 (Del19/C797S EGFR; HTRF) [nM] | Dmax (%) (Del19/C797S EGFR; maximum percentage of degradation)
1 | COC(=O)c1cc(C)nc(-c2cnn(C)c2OCCC[C@@H](C)Cn2c(N)nc3ccc(N4CCC5(CC4=O)OCCO5)cc32)c1 | 54.5 |  |  |  |  |  |  | 
2 | tert-butyl (R,E)-3-oxo-4-(1^1,2^6,7-trimethyl-3-oxo-5^2,5^3-dihydro-1^1H,5^1H-11-oxa-4-aza-5(2,1)-benzo[d]imidazola-2(2,4)-pyridina-1(4,5)-pyrazolacycloundecaphane-5′-yl)piperazine-1-carboxylate |  | 51.4 |  |  |  |  |  | 
3 | Cc1cc2cc(n1)-c1cnn(C)c1OCCC[C@@H](C)CN1/C(=N/C2=O)Nc2ccc(CN3CCN(C(=O)[C@@H]4CCN(c5cc(F)c([C@H]6CCC(=O)NC6=O)c(F)c5)C4)CC3)cc21 [Example 5, (R)-3-(2,6-difluoro-4-((R)-3-(4-(((R,E)-1^1,2^6,7-trimethyl-3-oxo-5^2,5^3-dihydro-1^1H,5^1H-11-oxa-4-aza-5(2,1)-benzo[d]imidazola-2(2,4)-pyridina-1(4,5)-pyrazolacycloundecaphane-5^6-yl)methyl)piperazine-1-carbonyl)pyrrolidin-1-yl)phenyl)piperidine-2,6-dione] |  |  | 1.5 | 72.0 | 2 | 83 | 0.6 | 67.6
4 | Cc1cc2cc(n1)-c1cnn(C)c1OCCC[C@@H](C)CN1/C(=N/C2=O)Nc2ccc(C(=O)N(C)C3CCN(CCc4cccc5c4C4(CC4)C(=O)N5C4CCC(=O)NC4=O)CC3)cc21 (stereo partly drawn) [Example 316, (7R,E)-N-(1-(2-(1′-(2,6-dioxopiperidin-3-yl)-2′-oxospiro[cyclopropane-1,3′-indolin]-4′-yl)ethyl)piperidin-4-yl)-N,1^1,2^6,7-tetramethyl-3-oxo-5^2,5′-dihydro-1^1H,5^1H-11-oxa-4-aza-5(2,1)-benzo[d]imidazola-2(2,4)-pyridina-1(4,5)-pyrazolacycloundecaphane-5^6-carboxamide] |  |  | 0.925 | 47.67 | 0.655 | 77.9 |  | 
5 | Cc1cc2cc(n1)-c1cnn(C)c1OCCC[C@@H](C)CN1/C(=N/C2=O)Nc2ccc(C(=O)N(C)C3CC4CCCC(C3)N4CCc3cc(F)c([C@H]4CCC(=O)NC4=O)c(F)c3)cc21 (stereo partly drawn) [Example 266, (7R,E)-N-(9-(4-((R)-2,6-dioxopiperidin-3-yl)-3,5-difluorophenethyl)-9-azabicyclo[3.3.1]nonan-3-yl) -N,1^1,2^6,7-tetramethyl-3-oxo-5^2,5^3-dihydro-1^1H,5^1H-11-oxa-4-aza-5(2,1)-benzo[d]imidazola-2(2,4)-pyridina-1(4,5)-pyrazolacycloundecaphane-5^6-carboxamide] |  |  | 0.65 | 75.93 | 1.51 | 81.4 |  | 
6 | Cc1cc2cc(n1)-c1cnn(C)c1OCCC[C@@H](C)CN1/C(=N/C2=O)Nc2ccc(CN3CCN(C(=O)[C@H]4CN(c5cc(F)c([C@H]6CCC(=O)NC6=O)c(F)c5)CC4(C)C)CC3)cc21 [Example 77, (R)-3-(4-((R)-3,3-dimethyl-4-(4-(((R,E)-1^1,2^6,7-trimethyl-3-oxo-5^2,5^3-dihydro-1^1H,5^1H-11-oxa-4-aza-5(2,1)-benzo[d]imidazola-2(2,4)-pyridina-1(4,5)-pyrazolacycloundecaphane-5-yl)methyl)piperazine-1-carbonyl)pyrrolidin-1-yl)-2,6-difluorophenyl)piperidine-2,6-dione] |  |  | 2.2 | 78.3 | 1.7 | 83.4 |  | 
7 | Cc1cc2cc(n1)-c1cnn(C)c1OCCC[C@@H](C)CN1/C(=N/C2=O)Nc2ccc(CN3C4CCC3CN(C(=O)[C@@H]3CCN(c5cc(F)c([C@H]6CCC(=O)NC6=O)c(F)c5)C3)C4)cc21 [Example 187, (3R)-3-(2,6-difluoro-4-((3R)-3-(8-(((R,E)-1^1,2,7-trimethyl-3-oxo-5^2,5^3-dihydro-1^1H,5^1H-11-oxa-4-aza-5(2,1)-benzo[d]imidazola-2(2,4)-pyridina-1(4,5)-pyrazolacycloundecaphane-5^6-yl)methyl)-3,8-diazabicyclo[3.2.1]octane-3-carbonyl)pyrrolidin-1-yl)phenyl)piperidine-2,6-dione] |  |  | 1.8 | 80.62 | 1.01 | 86.1 |  | 
8 | Cc1cc2cc(n1)-c1cnn(C)c1OCCC[C@@H](C)CN1/C(=N/C2=O)Nc2ccc(CN3CCC(N4CCN(C5CN(c6cc(F)c([C@H]7CCC(=O)NC7=O)c(F)c6)C5)CC4)CC3)cc21 [Example 18, (R)-3-(2,6-difluoro-4-(3-(4-(1-(((R,E)-1^1,2^6,7-trimethyl-3-oxo-5^2,5^3-dihydro-1^1H,5^1H-11-oxa-4-aza-5(2,1)-benzo[d]imidazola-2(2,4)-pyridina-1(4,5)-pyrazolacycloundecaphane-5^6-yl)methyl)piperidin-4-yl)piperazin-1-yl)azetidin-1-yl)phenyl)piperidine-2,6-dione] |  |  | 2.1 | 75.8 | 4.4 | 87.4 |  | 
9 | Cc1cc2cc(n1)-c1cnn(C)c1OCCC[C@@H](C)CN1/C(=N/C2=O)Nc2ccc(C(=O)N(C)CCC3CCN(c4cc(F)c([C@H]5CCC(=O)NC5=O)c(F)c4)CC3)cc21 [Example 279, (R,E)-N-(2-(1-(4-((R)-2,6-dioxopiperidin-3-yl)-3,5-difluorophenyl)piperidin-4-yl)ethyl)-N,1^1,2^6,7-tetramethyl-3-oxo-5^2,5^3-dihydro-1^1H,5^1H-11-oxa-4-aza-5(2,1)-benzo[d]imidazola-2(2,4)-pyridina-1(4,5)-pyrazolacycloundecaphane-5^6-carboxamide] |  |  | 0.75 | 82.08 | 1.33 | 83 |  | 
10 | Cc1cc2cc(n1)-c1cnn(C)c1OCCC[C@@H](C)CN1/C(=N/C2=O)Nc2ccc(C(=O)N(C)C[C@H]3CCN(CCc4cc(F)c([C@H]5CCC(=O)NC5=O)c(F)c4)CC3(F)F)cc21 [Example 274, (R,E)-N—(((R)-1-(4-((R)-2,6-dioxopiperidin-3-yl)-3,5-difluorophenethyl)-3,3-difluoropiperidin-4-yl)methyl)-N,1^1,2^6,7-tetramethyl-3-oxo-5^2,5^3-dihydro-1^1H,5^1H-11-oxa-4-aza-5(2,1)-benzo[d]imidazola-2(2,4)-pyridina-1(4,5)-pyrazolacycloundecaphane-5^6-carboxamide] |  |  | 0.691 | 48.56 | 1.63 | 69.2 |  | 
11 | Cc1cc2cc(n1)-c1cnn(C)c1OCCC[C@@H](C)CN1/C(=N/C2=O)Nc2ccc(N3CCN(CCCNc4cc(F)c([C@H]5CCC(=O)NC5=O)c(F)c4)CC3)cc21 [Example 400, (R)-3-(2,6-difluoro-4-((3-(4-((R,E)-1^1,2^6,7-trimethyl-3-oxo-5^2,5^3-dihydro-1^1H,5^1H-11-oxa-4-aza-5(2,1)-benzo[d]imidazola-2(2,4)-pyridina-1(4,5)-pyrazolacycloundecaphane-5^6-yl)piperazin-1-yl)propyl)amino)phenyl)piperidine-2,6-dione] |  |  | 0.628 | 79.74 | 0.915 | 89.8 |  | 
